These results are taken from patent US9586962B2, “Disubstituted octahydropyrrolo [3,4-C] pyrroles as orexin receptor modulators” (Janssen Pharmaceutica NV, priority 2011, dated 2017).

human orexin 2 receptor, sequence (O43614 whole entry): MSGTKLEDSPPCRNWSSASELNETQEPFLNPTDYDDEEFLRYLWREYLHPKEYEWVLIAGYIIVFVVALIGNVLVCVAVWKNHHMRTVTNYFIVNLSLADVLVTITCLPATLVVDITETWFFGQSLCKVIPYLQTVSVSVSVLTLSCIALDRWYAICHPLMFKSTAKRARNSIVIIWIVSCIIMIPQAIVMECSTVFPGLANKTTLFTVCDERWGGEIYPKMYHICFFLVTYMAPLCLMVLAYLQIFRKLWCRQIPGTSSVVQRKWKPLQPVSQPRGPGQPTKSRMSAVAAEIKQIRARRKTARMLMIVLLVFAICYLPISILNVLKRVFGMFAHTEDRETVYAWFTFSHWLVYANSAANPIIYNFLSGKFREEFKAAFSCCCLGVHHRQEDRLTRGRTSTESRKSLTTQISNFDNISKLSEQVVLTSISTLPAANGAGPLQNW

This assay concerns the target human orexin 2 receptor (Homo sapiens (Human), UniProt O43614). As to the kind of experiment: Human orexin 2 receptor radioligand binding ([3H]EMPA competition, HEK293 cells). The note with it: HEK293 cells expressing human orexin-2 receptor, read-out: OR 2 Ki.
Turning to `O=C(c1cccc(F)c1I)N1CC2CN(c3cnc4cc(F)c(F)cc4n3)CC2C1` (stereo not shown) [Example 449, 6,7-Difluoro-2-{5-[(3-fluoro-2-iodophenyl)carbonyl]hexahydropyrrolo[3,4-c]pyrrol-2(1H)-yl}quinoxaline], the inhibition constant (Ki) was 160 nM.

For `O=C(c1cccc(F)c1-c1ncccc1F)N1CC2CN(c3cnc4cc(F)c(F)cc4n3)CC2C1` (stereo not shown) [Example 450, 6,7-Difluoro-2-[5-{[3-fluoro-2-(3-fluoropyridin-2-yl)phenyl]carbonyl}hexahydropyrrolo[3,4-c]pyrrol-2(1H)-yl]quinoxaline], the inhibition constant Ki stood at 36 nM.

Consider `O=C(c1cccc(F)c1-c1ncco1)N1CC2CN(c3cnc4cc(F)c(F)cc4n3)CC2C1` (stereo not shown) [Example 451, 6,7-Difluoro-2-[5-{[3-fluoro-2-(1,3-oxazol-2-yl)phenyl]carbonyl}hexahydropyrrolo[3,4-c]pyrrol-2(1H)-yl]quinoxaline], for which the Ki was 29 nM.

`O=C(c1cccc(F)c1-c1ccccn1)N1CC2CN(c3cnc4cc(F)c(F)cc4n3)CC2C1` (stereo not shown) [Example 452, 6,7-Difluoro-2-{5-[(3-fluoro-2-pyridin-2-ylphenyl)carbonyl]hexahydropyrrolo[3,4-c]pyrrol-2(1H)-yl}quinoxaline]: the Ki worked out at 26 nM.

For the compound `COc1cccnc1-c1c(F)cccc1C(=O)N1CC2CN(c3cnc4cc(F)c(F)cc4n3)CC2C1` (stereo not shown) [Example 453, 6,7-Difluoro-2-[5-{[3-fluoro-2-(3-methoxypyridin-2-yl)phenyl]carbonyl}hexahydropyrrolo[3,4-c]pyrrol-2(1H)-yl]quinoxaline], the inhibition constant Ki stood at 47 nM.

`O=C(c1cccc(F)c1-c1cncs1)N1CC2CN(c3cnc4cc(F)c(F)cc4n3)CC2C1` (stereo not shown) [Example 454, 6,7-Difluoro-2-[5-{[3-fluoro-2-(1,3-thiazol-5-yl)phenyl]carbonyl}hexahydropyrrolo[3,4-c]pyrrol-2(1H)-yl]quinoxaline]: the Ki turned out to be 72 nM.

As for `O=C(c1cccc(F)c1-c1cscn1)N1CC2CN(c3cnc4cc(F)c(F)cc4n3)CC2C1` (stereo not shown) [Example 455, 6,7-Difluoro-2-[5-{[3-fluoro-2-(1,3-thiazol-4-yl)phenyl]carbonyl}hexahydropyrrolo[3,4-c]pyrrol-2(1H)-yl]quinoxaline], the Ki came out at 32 nM.

With `O=C(c1cccc(F)c1-c1[nH]ncc1F)N1CC2CN(c3cnc4cc(F)c(F)cc4n3)CC2C1` (stereo not shown) [Example 456, 6,7-Difluoro-2-[5-{[3-fluoro-2-(4-fluoro-1H-pyrazol-5-yl)phenyl]carbonyl}hexahydropyrrolo[3,4-c]pyrrol-2(1H)-yl]quinoxaline], the Ki was found to be 31 nM.

With `COc1ccc(C(=O)N2CC3CN(c4cnc5cc(F)c(F)cc5n4)CC3C2)c(-c2ncccn2)c1` (stereo not shown) [Example 459, 6,7-Difluoro-2-{5-[(4-methoxy-2-pyrimidin-2-ylphenyl)carbonyl]hexahydropyrrolo[3,4-c]pyrrol-2(1H)-yl}quinoxaline], the inhibition constant Ki worked out at 38 nM.

For `Cc1cccc(C(=O)N2CC3CN(c4cnc5cc(F)c(F)cc5n4)CC3C2)c1-n1nccn1` (stereo not shown) [Example 460, 6,7-Difluoro-2-[5-{[3-methyl-2-(2H-1,2,3-triazol-2-yl)phenyl]carbonyl}hexahydropyrrolo[3,4-c]pyrrol-2(1H)-yl]quinoxaline], the Ki is 109 nM.

For the compound `Cc1cc(C)nc(N2CC3CN(C(=O)c4cccc5c4OCC5)CC3C2)n1` (stereo not shown) [Example 463, 2-(2,3-Dihydro-1-benzofuran-7-ylcarbonyl)-5-(4,6-dimethylpyrimidin-2-yl)octahydropyrrolo[3,4-c]pyrrole], the inhibition constant (Ki) came to 4000 nM.

Take `Cc1cc(C)nc(N2CC3CN(C(=O)c4c(C)nc5sccn45)CC3C2)n1` (stereo not shown) [Example 464, 5-{[5-(4,6-Dimethylpyrimidin-2-yl)hexahydropyrrolo[3,4-c]pyrrol-2(1H)-yl]carbonyl}-6-methylimidazo[2,1-b][1,3]thiazole]: the inhibition constant (Ki) was 3900 nM.

As for `COc1cccc(-n2nccn2)c1C(=O)N1CC2CN(c3nc(C)cc(C)n3)CC2C1` (stereo not shown) [Example 465, 2-(4,6-Dimethylpyrimidin-2-yl)-5-{[2-methoxy-6-(2H-1,2,3-triazol-2-yl)phenyl]carbonyl}octahydropyrrolo[3,4-c]pyrrole], the Ki turned out to be 33 nM.

As for `Cc1cc(C)nc(N2CC3CN(C(=O)c4c(F)cccc4-c4nccs4)CC3C2)n1` (stereo not shown) [Example 476, 2-(4,6-Dimethylpyrimidin-2-yl)-5-{[2-fluoro-6-(1,3-thiazol-2-yl)phenyl]carbonyl}octahydropyrrolo[3,4-c]pyrrole], the inhibitory constant (Ki) was found to be 15 nM.

For the compound `Cc1cc(C)nc(N2CC3CN(C(=O)c4c(F)cccc4-c4ncc(C)s4)CC3C2)n1` (stereo not shown) [Example 477, 2-(4,6-Dimethylpyrimidin-2-yl)-5-{[2-fluoro-6-(5-methyl-1,3-thiazol-2-yl)phenyl]carbonyl}octahydropyrrolo[3,4-c]pyrrole], the inhibitory constant (Ki) was determined as 19 nM.

For the compound `Cc1cc(C)nc(N2CC3CN(C(=O)c4c(F)cccc4-c4[nH]ncc4C(F)(F)F)CC3C2)n1` (stereo not shown) [Example 478, 2-(4,6-Dimethylpyrimidin-2-yl)-5-({2-fluoro-6-[4-(trifluoromethyl)-1H-pyrazol-5-yl]phenyl}carbonyl)octahydropyrrolo[3,4-c]pyrrole], the inhibition constant (Ki) amounted to 49 nM.

Consider `COc1ncc(-c2cccc(F)c2C(=O)N2CC3CN(c4nc(C)cc(C)n4)CC3C2)s1` (stereo not shown) [Example 479, 2-(4,6-Dimethylpyrimidin-2-yl)-5-{[2-fluoro-6-(2-methoxy-1,3-thiazol-5-yl)phenyl]carbonyl}octahydropyrrolo[3,4-c]pyrrole], for which the Ki was determined as 524 nM.

On to `Cc1cc(C)nc(N2CC3CN(C(=O)c4c(F)cccc4C4=CC(=O)OC4)CC3C2)n1` (stereo not shown) [Example 480, 4-(2-{[5-(4,6-Dimethylpyrimidin-2-yl)hexahydropyrrolo[3,4-c]pyrrol-2(1H)-yl]carbonyl}-3-fluorophenyl)furan-2(5H)-one], for which the Ki was 3810 nM.

As to `Cc1cc(C)nc(N2CC3CN(C(=O)c4c(F)cccc4-c4ncccc4F)CC3C2)n1` (stereo not shown) [Example 481, 2-(4,6-Dimethylpyrimidin-2-yl)-5-{[2-fluoro-6-(3-fluoropyridin-2-yl)phenyl]carbonyl}octahydropyrrolo[3,4-c]pyrrole], the Ki was found to be 24 nM.

As to `Cc1cc(C)nc(N2CC3CN(C(=O)c4c(F)cccc4-c4cn(C)cn4)CC3C2)n1` (stereo not shown) [Example 482, 2-(4,6-Dimethylpyrimidin-2-yl)-5-{[2-fluoro-6-(1-methyl-1H-imidazol-4-yl)phenyl]carbonyl}octahydropyrrolo[3,4-c]pyrrole], the Ki was found to be 30 nM.

As for `COc1ccnc(-c2cccc(F)c2C(=O)N2CC3CN(c4nc(C)cc(C)n4)CC3C2)n1` (stereo not shown) [Example 483, 2-(4,6-Dimethylpyrimidin-2-yl)-5-{[2-fluoro-6-(4-methoxypyrimidin-2-yl)phenyl]carbonyl}octahydropyrrolo[3,4-c]pyrrole], the Ki was determined as 11 nM.

For `Cc1cc(C)nc(N2CC3CN(C(=O)c4c(F)cccc4-c4ccc(Cl)cn4)CC3C2)n1` (stereo not shown) [Example 484, 2-{[2-(5-Chloropyridin-2-yl)-6-fluorophenyl]carbonyl}-5-(4,6-dimethylpyrimidin-2-yl)octahydropyrrolo[3,4-c]pyrrole], the Ki was found to be 230 nM.

As to `CSc1nccc(-c2cccc(F)c2C(=O)N2CC3CN(c4nc(C)cc(C)n4)CC3C2)n1` (stereo not shown) [Example 485, 2-(4,6-Dimethylpyrimidin-2-yl)-5-({2-fluoro-6-[2-(methylsulfanyl)pyrimidin-4-yl]phenyl}carbonyl)octahydropyrrolo[3,4-c]pyrrole], the inhibition constant Ki came out at 84 nM.

With `Cc1cc(C)nc(N2CC3CN(C(=O)c4c(F)cccc4-c4cscn4)CC3C2)n1` (stereo not shown) [Example 486, 2-(4,6-Dimethylpyrimidin-2-yl)-5-{[2-fluoro-6-(1,3-thiazol-4-yl)phenyl]carbonyl}octahydropyrrolo[3,4-c]pyrrole], the Ki was 15 nM.

For `Cc1cc(C)nc(N2CC3CN(C(=O)c4c(F)cccc4-c4cncs4)CC3C2)n1` (stereo not shown) [Example 487, 2-(4,6-Dimethylpyrimidin-2-yl)-5-{[2-fluoro-6-(1,3-thiazol-5-yl)phenyl]carbonyl}octahydropyrrolo[3,4-c]pyrrole], the inhibitory constant (Ki) came out at 54 nM.

Take `Cc1cc(C)nc(N2CC3CN(C(=O)c4c(F)cccc4-c4ccnnc4)CC3C2)n1` (stereo not shown) [Example 488, 2-(4,6-Dimethylpyrimidin-2-yl)-5-[(2-fluoro-6-pyridazin-4-ylphenyl)carbonyl]octahydropyrrolo[3,4-c]pyrrole]: the Ki worked out at 10000 nM.

For `Cc1ccnc(-c2cccc(F)c2C(=O)N2CC3CN(c4nc(C)cc(C)n4)CC3C2)c1` (stereo not shown) [Example 489, 2-(4,6-Dimethylpyrimidin-2-yl)-5-{[2-fluoro-6-(4-methylpyridin-2-yl)phenyl]carbonyl}octahydropyrrolo[3,4-c]pyrrole], the inhibitory constant (Ki) was found to be 45 nM.

Consider `Cc1cc(C)nc(N2CC3CN(C(=O)c4c(F)cccc4-c4ncco4)CC3C2)n1` (stereo not shown) [Example 491, 2-(4,6-Dimethylpyrimidin-2-yl)-5-{[2-fluoro-6-(1,3-oxazol-2-yl)phenyl]carbonyl}octahydropyrrolo[3,4-c]pyrrole], for which the Ki turned out to be 16 nM.

Regarding `Cc1cc(C)nc(N2CC3CN(C(=O)c4cc(F)ccc4-c4cccn4C)CC3C2)n1` (stereo not shown) [Example 493, 2-(4,6-Dimethylpyrimidin-2-yl)-5-{[5-fluoro-2-(1-methyl-1H-pyrrol-2-yl)phenyl]carbonyl}octahydropyrrolo[3,4-c]pyrrole], the Ki came to 10000 nM.

As to `Cc1cc(C)nc(N2CC3CN(C(=O)c4cc(F)ccc4-c4cscn4)CC3C2)n1` (stereo not shown) [Example 494, 2-(4,6-Dimethylpyrimidin-2-yl)-5-{[5-fluoro-2-(1,3-thiazol-4-yl)phenyl]carbonyl}octahydropyrrolo[3,4-c]pyrrole], the Ki amounted to 180 nM.

`Cc1nc(N2CC3CN(C(=O)c4cccc(F)c4-c4ncco4)CC3C2)ncc1F` (stereo not shown) [Example 496, 2-(5-Fluoro-4-methylpyrimidin-2-yl)-5-{[3-fluoro-2-(1,3-oxazol-2-yl)phenyl]carbonyl}octahydropyrrolo[3,4-c]pyrrole]: the inhibition constant Ki is 26 nM.
